Values after ≈ are worked out from the molar mass of the structure shown. Values joined by “and” are separate entries in the source; they are usually repeats but may differ in a detail not shown here. Equal entries are not always repeated. Bounds are passed on as bounds.

Some test systems named below: Escherichia coli W160-37; Bacillus subtilis; Pseudomonas aeruginosa; Staphylococcus aureus; Candida krusei CK802/97; Bacillus subtilis 168; Escherichia coli B; Escherichia coli BL21; Shigella sonnei EW-33; Citrobacter koseri; Acinetobacter baumannii; Shigella flexneri EW-10; Salmonella enterica; Botrytis cinerea; Klebsiella pneumoniae; Staphylococcus xylosus; Enterococcus faecalis; Escherichia coli JM109; Enterococcus faecium.

What all share (test): ≥ marks a high value that may be exact or a test limit, other limits are often not marked, values filed in µg/mL are converted to µM
Test [1] has as its system Proteus mirabilis CCUG 26767.
For test [2], the system named is Staphylococcus aureus NCTC 10788.
The subject of test [3] is Enterococcus faecalis ATCC 19433.
Test [4] concerns Klebsiella pneumoniae ATCC 43816.
Test [5] has as its system Enterococcus faecium NTCC 12697.
For test [6], the system named is Pseudomonas aeruginosa ATCC 9027.
Test [7] deals with Salmonella enterica subsp. enterica serovar Typhimurium LT2.
The subject of test [8] is Staphylococcus aureus ATCC 8530.
For test [9], the system named is Staphylococcus aureus NCTC 12493.
The test system of test [10] is Enterococcus faecium ATCC 19434.
Test [11] deals with Klebsiella pneumoniae ATCC 13883.
Test [12] has as its system Escherichia coli ATCC 25922.
For test [13], the system named is Escherichia coli ATCC 8739.
The subject of test [14] is Bacillus subtilis ATCC 6633.
Test [15] concerns Staphylococcus aureus ATCC 29213.
Test [16] relates to Pseudomonas aeruginosa ATCC 27853.
For test [17], the system named is Candida albicans ATCC 200955.
In test [18] the test system is Staphylococcus aureus ATCC 33591.
Test [19] relates to Enterococcus faecium ATCC 700221.
In test [20] the test system is Staphylococcus aureus ATCC 25923.
Test [21] relates to Candida glabrata CG196/98IDE.
In test [22] the test system is Candida parapsilosis Z150/119/IDE99.
For test [23], the system named is Staphylococcus aureus 1840.
In test [24] the test system is Escherichia coli ATCC 11775.
Test [25] has as its system Salmonella typhimurium CCRC 12947.
For test [26], the system named is Staphylococcus aureus FDA 209P.
In test [27] the test system is Staphylococcus aureus CCRC 12652.
Test [28] relates to Staphylococcus aureus CCRC 15211.
The test system of test [29] is Lactobacillus delbrueckii subsp. bulgaricus.
The test system of test [30] is Staphylococcus epidermidis ATCC 12228.
The subject of test [31] is Enterococcus faecalis LS-101.
Test [32] deals with Staphylococcus aureus ATCC 12600.
Test [33] concerns Candida albicans ATCC 10231.
Test [34] has as its system Bacillus subtilis PCI 219.
In test [35] the test system is Vibrio parahaemolyticus CCRC 10806.
The subject of test [36] is Bifidobacterium adolescentis.
The test system of test [37] is Klebsiella pneumoniae CCRC 10694.
The test system of test [38] is Escherichia coli NIHJ JC-2.
Test [39] relates to Enterococcus faecium EFMY-28.

For `CC[C@H](C)[C@H](NC(=O)[C@H](CC(C)C)NC(=O)[C@@H]1CCCN1C(=O)[C@H](CC(C)C)NC(=O)[C@@H](N)Cc1ccccc1)C(=O)N[C@@H](CC(C)C)C(=O)N[C@@H](CCCN=C(N)N)C(=O)N[C@@H](CCCCN)C(=O)N[C@H](C(=O)N[C@H](C(=O)N[C@H](C(=O)N[C@@H](C)C(=O)N[C@@H](CC(C)C)C(N)=O)[C@@H](C)O)C(C)C)[C@@H](C)CC` [FLPLILRKIVTAL], the MIC (commonly the lowest concentration that inhibits growth of the organism) in test [1] is ≥ 401 µM; in test [2], 2 µM (≈ 2.99 µg/mL); in [3], ≥ 100 µM; in [4] it was ≥ 64 µM; in test [5], 16 µM (≈ 23.9 µg/mL); in test [6] it was 128 µM (≈ 191 µg/mL). Further, the minimum inhibitory concentration (MIC) is ≥ 200 µM in test [7]; ≥ 200 µM in test [8]; 4 µM (≈ 5.98 µg/mL) in test [9]; ≥ 50.1 µM in test [10]; ≥ 401 µM in [11]; 200 µM (≈ 300 µg/mL) in test [12]. The minimum inhibitory concentration (MIC) was ≥ 32 µM in test [13]; ≥ 200 µM in [14]; 200 µM (≈ 300 µg/mL) in test [15]; ≥ 100 µM in the test on Escherichia coli W160-37; ≥ 50.1 µM against Bacillus subtilis; > 401 µM in test [16].
For the compound `CC[C@H](C)[C@H](NC(=O)[C@H](Cc1c[nH]c2ccccc12)NC(=O)[C@H](CCCCN)NC(=O)[C@H](CC(C)C)NC(=O)[C@H](CC(C)C)NC(=O)CN)C(=O)N[C@@H](CCCCN)C(=O)N[C@H](C(=O)N[C@@H](CC(C)C)C(=O)N[C@@H](CC(C)C)C(N)=O)[C@@H](C)O` [GLLKWIKTLL], the MIC was 28.4 µM (≈ 33.6 µg/mL) in test [17]; 9.5 µM (≈ 11.2 µg/mL) in test [18]; 9.5 µM (≈ 11.2 µg/mL) in test [19]; 1.69 µM (≈ 2 µg/mL) in [20]; 28.4 µM (≈ 33.6 µg/mL) in [16].
As to `CC[C@H](C)[C@H](NC(=O)[C@H](CC(C)C)NC(=O)[C@H](Cc1cnc[nH]1)NC(=O)CNC(=O)[C@H](CC(C)C)NC(=O)[C@@H](NC(=O)[C@H](CCCCN)NC(=O)[C@H](CCCCN)NC(=O)[C@H](Cc1c[nH]c2ccccc12)NC(=O)[C@H](CCSC)NC(=O)CN)[C@@H](C)CC)C(=O)N[C@@H](CCCN=C(N)N)C(N)=O` [GMWKKILGHLIR], the MIC against Pseudomonas aeruginosa was 16.3 µM (≈ 23.6 µg/mL); in [21], ≥ 40 µM and 25 µM and 30 µM; with Staphylococcus aureus, 8.4 µM (≈ 12.2 µg/mL); against Candida krusei CK802/97, 30 µM and 15 µM and 20 µM; against Bacillus subtilis 168, 0.9 µM (≈ 1.31 µg/mL); in test [22], 30 µM and 15 µM. This compound also yielded a minimal inhibitory concentration (MIC) in the test with Escherichia coli B of 1.8 µM (≈ 2.61 µg/mL).
As for `CC[C@H](C)[C@H](NC(=O)[C@H](CO)NC(=O)[C@H](CCCCN)NC(=O)[C@H](CC(C)C)NC(=O)[C@H](CCCCN)NC(=O)[C@@H](N)CC(C)C)C(=O)N[C@H](C(=O)N[C@@H](CO)C(=O)N[C@@H](Cc1c[nH]c2ccccc12)C(=O)N[C@@H](C)C(=O)N[C@@H](CCCCN)C(=O)N[C@@H](CCCCN)C(=O)N[C@H](C(=O)N[C@@H](CC(C)C)C(N)=O)C(C)C)C(C)C` [LKLKSIVSWAKKVL], the MIC against Escherichia coli BL21 came to 3.51 µM (≈ 5.65 µg/mL); in [23], 15.5 µM (≈ 25 µg/mL); against Shigella sonnei EW-33, 3.87 µM (≈ 6.25 µg/mL); in the test on Staphylococcus aureus, 8.25 µM (≈ 13.3 µg/mL); with Citrobacter koseri it was 1.75 µM (≈ 2.83 µg/mL); in [24] it was 31 µM (≈ 50 µg/mL). Also, the minimal inhibitory concentration (MIC) with Acinetobacter baumannii was 1.05 µM and 1.24 µM; in [25], 19.8 µM (≈ 32 µg/mL); in test [26], 7.75 µM (≈ 12.5 µg/mL); in test [27], 9.92 µM (≈ 16 µg/mL); with Shigella flexneri EW-10, 3.87 µM (≈ 6.25 µg/mL); against Salmonella enterica it was 19.8 µM (≈ 32 µg/mL). Besides, the MIC in [28] is 14 µM (≈ 22.6 µg/mL); in [29], ≥ 79.4 µM; in test [30], 3.87 µM (≈ 6.25 µg/mL); in test [31], 1.94 µM (≈ 3.13 µg/mL); in test [32], 3.1 µM (≈ 5 µg/mL); with Botrytis cinerea it was 4.96 µM (≈ 8 µg/mL). Besides, the MIC in test [33] is 15.5 µM (≈ 25 µg/mL); in [34], 1.94 µM (≈ 3.13 µg/mL); in the test on Klebsiella pneumoniae, > 15.5 µM; against Staphylococcus xylosus, 0.31 µM (≈ 0.5 µg/mL); in test [35], 7.01 µM (≈ 11.3 µg/mL); in test [36], ≥ 79.4 µM. Further, the MIC in test [37] was ≥ 39.7 µM; in test [38] it was 7.75 µM (≈ 12.5 µg/mL); against Enterococcus faecalis it was 6.63 µM (≈ 10.7 µg/mL); in test [39], 12.5 µM (≈ 20.2 µg/mL); against Escherichia coli JM109, 0.62 µM (≈ 0.999 µg/mL); in the test with Enterococcus faecium, ≥ 79.4 µM.
